Several values for one entry are separate records, joined by “and”; a condition that tells them apart may be missing. Equal values may be shown once.
Test system: MDA-MB-231/TGL cells
Experiment: metabolomic assay (polar metabolite profiling, mass spectrometry)
Format: cell-based, human
Description: Cells were seeded in a 10 cm cell culture plate with DMEM containing 10% FBS, 0.2 mM L-glutamine and 1% penicillin/streptomycin. After 16 hours of incubation, metabolites were extracted from the cells using 80% methanol. The remaining steps were carried out with no change according to the methods of Goncalves et al, PNAS, 115:4, E743-E752 (2018). All data analyses were done using MetaboAnalyst.
7 × 10^6 cells were seeded in 10-cm cell culture plates with DMEM containing 10% FBS, 0.2 mM L-glutamine and 1% penicillin/streptomycin. Additionally, MCF7/TGL/pQ was cultured in media containing 0.5 µgml^-1 puromycin and 25 mM HEPES. After 16 hours of incubation, metabolites were extracted from the cells using 80% methanol. The remaining steps were carried out by Weill Cornell Medicine Proteomics and Metabolomics Core Facility according to M. D. Goncalves et al., Proc Natl Acad Sci USA 115, E743-E752 (2018). All data analyses were done using MetaboAnalyst 4.0 (www.metaboanalyst.ca/).
To investigate whether 250 ppm CO mimics hypoxia, the HiF1α protein levels were examined in CO treated MCF7/TGL and MDA-MB-231/TGL cells. […] To determine whether 250 ppm CO affects metabolism, polar metabolites were profiled using two breast cancer cell lines, MCF7/TGL and MDA-MB-231/TGL (FIGS. 7-9).

[1] = MDA-MB-231/TGL cells treated with CO (250 ppm), replicates CO 1-3

`[C-]#[O+]` [CO, Carbon monoxide] was tested, and the cis-aconitic acid (MCF7/TGL and MDA-MB-231/TGL cells, 250 ppm CO, 16 hours) was “significantly downregulated”, the “Peak Height of metabolite intensity: 2-Hydroxycaproic acid (HMDB01624)” value [1] was 244,811 and 833,959 and 281,142 and the “Peak Height of metabolite intensity: 2-Hydroxyvaleric acid (HMDB01863)” value [1] was 621,532 and 904,968 and 786,820. The “Peak Height of metabolite intensity: 2-Ketobutyric acid (HMDB00005)” value [1] was 5,289,178 and 6,027,442 and 5,724,353, the “Peak Height of metabolite intensity: 2-Ketohexanoic acid (HMDB01864)” value [1] was 21,644,820 and 23,261,950 and the “Peak Height of metabolite intensity: 3-Hydroxyhippuric acid (HMDB06116)” value [1] was 67,709 and 54,023 and 55,195. The “Peak Height of metabolite intensity: 3-Hydroxymethylglutaric acid (HMDB00355)” value [1] was 20,353,060 and 19,480,200 and 19,066,660, the “Peak Height of metabolite intensity: 3-Phosphoglyceric acid (HMDB00807)” value [1] was 2,076,132 and 820,562 and 843,315 and the “Peak Height of metabolite intensity: 3-hydroxyhexadecanoic acid (HMDB61658)” value [1] was 119,550 and 182,677 and 362,311. The “Peak Height of metabolite intensity: 4-Acetamidobutanoic acid (HMDB03681)” value [1] was 438,862 and 501,312 and 487,324, the “Peak Height of metabolite intensity: 4-Hydroxybenzaldehyde (HMDB11718)” value [1] was 1,623,875 and 1,610,244 and 2,163,467 and the “Peak Height of metabolite intensity: 5-Adenosylhomocysteine (HMDB00939)” value [1] was 502,295 and 543,231 and 555,202. For the same compound, the “Peak Height of metabolite intensity: 5-Thymidylic acid (HMDB01227)” value [1] was 1,061,384 and 1,368,086 and 1,260,084, the “Peak Height of metabolite intensity: 5′-Methylthioadenosine (HMDB01173)” value [1] was 1,678,515 and 1,980,683 and 3,013,280 and the “Peak Height of metabolite intensity: 6-Phosphogluconic acid (HMDB01316)” value [1] was 394,956 and 515,553 and 654,253. For the same compound, the “Peak Height of metabolite intensity: 7-Methylguanosine (HMDB01107)” value [1] was 25,667 and 34,657 and 32,703, the “Peak Height of metabolite intensity: (R)-3-Hydroxydecanoic acid (HMDB10725)” value [1] was 88,715 and 193,751 and 99,729 and the “Peak Height of metabolite intensity: ADP (HMDB01341)” value [1] was 4,962,730 and 5,529,189 and 5,002,783. The “Peak Height of metabolite intensity: ADP-glucose (HMDB06557)” value [1] was 84,781 and 90,192 and 99,689, the “Peak Height of metabolite intensity: AICAR (HMDB01517)” value [1] was 32,080 and 59,426 and the “Peak Height of metabolite intensity: Acetylcholine (HMDB00895)” value [1] was 34,254,070 and 37,448,230 and 42,218,910. For the same compound, the “Peak Height of metabolite intensity: Acetylcysteine (HMDB01890)” value [1] was 3,133,666 and 3,527,413 and 3,894,968, the “Peak Height of metabolite intensity: Adenine (HMDB00034)” value [1] was 1,219,554 and 812,836 and 907,390 and the “Peak Height of metabolite intensity: Adenosine (HMDB00050)” value [1] was 18,973,870 and 624,270 and 424,559. For the same compound, the “Peak Height of metabolite intensity: Adenosine monophosphate (HMDB00045)” value [1] was 6,997,849 and 8,959,282 and 6,609,897, the “Peak Height of metabolite intensity: Adenosine triphosphate (HMDB00538)” value [1] was 7,254,237 and 6,217,538 and 7,426,501 and the “Peak Height of metabolite intensity: Allantoic acid (HMDB01209)” value [1] was 66,783 and 51,760 and 61,927. For the same compound, the “Peak Height of metabolite intensity: Allantoin (HMDB00462)” value [1] was 1,362,548 and 1,445,842 and 1,605,951, the “Peak Height of metabolite intensity: Alpha-Lactose (HMDB00186)” value [1] was 636,775 and 666,969 and 547,770 and the “Peak Height of metabolite intensity: Aminoadipic acid (HMDB00510)” value [1] was 5,352,894 and 5,983,553 and 6,501,110. For the same compound, the “Peak Height of metabolite intensity: Arachidonic acid (HMDB01043)” value [1] was 219,569 and 129,238 and 117,457, the “Peak Height of metabolite intensity: Argininosuccinic acid (HMDB00052)” value [1] was 397,796 and 561,328 and 632,101 and the “Peak Height of metabolite intensity: Asymmetric dimethylarginine (HMDB01539)” value [1] was 5,492,503 and 6,220,486 and 6,753,139. The “Peak Height of metabolite intensity: Betaine (HMDB00043)” value [1] was 126,207,200 and 122,297,900 and 134,080,700, the “Peak Height of metabolite intensity: Biotin (HMDB00030)” value [1] was 28,122 and 15,310 and the “Peak Height of metabolite intensity: CDP (HMDB01546)” value [1] was 536,936 and 604,322 and 492,208. For the same compound, the “Peak Height of metabolite intensity: CDP-Ethanolamine (HMDB01564)” value [1] was 100,228 and 130,601 and 162,582, the “Peak Height of metabolite intensity: Caprylic acid (HMDB00482)” value [1] was 470,899 and 477,590 and 472,338 and the “Peak Height of metabolite intensity: Carnosine (HMDB00033)” value [1] was 2,256,265 and 2,245,049 and 2,446,163. The “Peak Height of metabolite intensity: Choline (HMDB00097)” value [1] was 108,427,800 and 109,880,900 and 111,858,100, the “Peak Height of metabolite intensity: Citicoline (HMDB01413)” value [1] was 361,538 and 444,892 and 574,461 and the “Peak Height of metabolite intensity: Citric acid (HMDB00094)” value [1] was 74,805,210 and 82,630,710 and 89,689,600. The “Peak Height of metabolite intensity: Citrulline (HMDB00904)” value [1] was 15,240,380 and 14,266,830 and 19,605,850, the “Peak Height of metabolite intensity: Coenzyme A (HMDB01423)” value [1] was 109,174 and 125,366 and 106,848 and the “Peak Height of metabolite intensity: Creatine (HMDB00064)” value [1] was 123,445,200 and 119,145,800 and 129,072,700. For the same compound, the “Peak Height of metabolite intensity: Creatinine (HMDB00562)” value [1] was 23,236,710 and 23,501,360 and 25,483,820, the “Peak Height of metabolite intensity: Cytidine (HMDB00089)” value [1] was 225,855 and 258,465 and 227,521 and the “Peak Height of metabolite intensity: Cytidine monophosphate (HMDB00095)” value [1] was 724,977 and 871,719 and 625,602. For the same compound, the “Peak Height of metabolite intensity: Cytidine triphosphate (HMDB00082)” value [1] was 183,937 and 215,682 and 295,169, the “Peak Height of metabolite intensity: D-2,3-Dihydroxypropanoic acid (HMDB31818)” value [1] was 2,140,143 and 2,437,835 and 2,431,980 and the “Peak Height of metabolite intensity: D-2-Hydroxyglutaric acid (HMDB00606)” value [1] was 3,167,321 and 3,985,443 and 4,584,429. The “Peak Height of metabolite intensity: D-Arabitol (HMDB00568)” value [1] was 3,445,547 and 3,545,938 and 4,135,015, the “Peak Height of metabolite intensity: D-Fructose (HMDB00660)” value [1] was 6,135,849 and 6,547,945 and 7,210,193 and the “Peak Height of metabolite intensity: D-Glucose (HMDB00122)” value [1] was 36,851,430 and 39,288,740 and 42,369,140. For the same compound, the “Peak Height of metabolite intensity: D-Glyceraldehyde 3-phosphate (HMDB01112)” value [1] was 6,590,523 and 2,998,173 and 3,562,678, the “Peak Height of metabolite intensity: D-Ribose 5-phosphate (HMDB01548)” value [1] was 624,479 and 581,839 and 786,584 and the “Peak Height of metabolite intensity: D-Ribose (HMDB00283)” value [1] was 2,183,962 and 2,605,392 and 2,639,392. The “Peak Height of metabolite intensity: D-Sedoheptulose 7-phosphate (HMDB01068)” value [1] was 561,321 and 572,202 and 625,243, the “Peak Height of metabolite intensity: DL-O-Phosphoserine (HMDB01721)” value [1] was 185,294 and 163,584 and 141,059 and the “Peak Height of metabolite intensity: Deoxyinosine (HMDB00071)” value [1] was 8,871 and 6,834 and 15,777. The “Peak Height of metabolite intensity: Deoxyribose 5-phosphate (HMDB01031)” value [1] was 50,751 and 42,917 and 52,112, the “Peak Height of metabolite intensity: Deoxyuridine (HMDB00012)” value [1] was 40,015 and 22,277 and 25,003 and the “Peak Height of metabolite intensity: Dimethylglycine (HMDB00092)” value [1] was 10,914,430 and 13,334,130 and 17,506,690. The “Peak Height of metabolite intensity: Erythritol (HMDB02994)” value [1] was 598,716 and 590,438 and 628,349, the “Peak Height of metabolite intensity: Fructose 1,6-bisphosphate (HMDB01058)” value [1] was 10,176,490 and 12,986,490 and 13,433,710 and the “Peak Height of metabolite intensity: Fructose 6-phosphate (HMDB00124)” value [1] was 2,660,942 and 2,572,195 and 2,965,940. The “Peak Height of metabolite intensity: Fumaric acid (HMDB00134)” value [1] was 8,464,455 and 9,727,776 and 11,821,440, the “Peak Height of metabolite intensity: GDP-glucose (HMDB03351)” value [1] was 92,740 and 103,248 and 99,915 and the “Peak Height of metabolite intensity: Gluconic acid (HMDB00625)” value [1] was 37,957,970 and 52,856,170 and 64,673,460. The “Peak Height of metabolite intensity: Glucosamine 6-phosphate (HMDB01254)” value [1] was 529,990 and 692,898 and 945,530, the “Peak Height of metabolite intensity: Glucose 6-phosphate (HMDB01401)” value [1] was 2,103,241 and 2,833,469 and 3,624,968 and the “Peak Height of metabolite intensity: Glutathione (HMDB00125)” value [1] was 99,156,710 and 109,797,600 and 130,505,000. For the same compound, the “Peak Height of metabolite intensity: Glycerol3-phosphate (HMDB00126)” value [1] was 758,556 and 825,062 and 1,025,018, the “Peak Height of metabolite intensity: Glycerophosphocholine (HMDB00086)” value [1] was 347,562,900 and 361,214,700 and 419,624,900 and the “Peak Height of metabolite intensity: Glycine (HMDB00123)” value [1] was 45,296,030 and 53,615,700 and 58,796,920. For the same compound, the “Peak Height of metabolite intensity: Guanosine (HMDB00133)” value [1] was 619,336 and 155,195 and 131,494, the “Peak Height of metabolite intensity: Guanosine diphosphate (HMDB01201)” value [1] was 493,573 and 471,968 and 538,827 and the “Peak Height of metabolite intensity: Guanosine monophosphate (HMDB01397)” value [1] was 465,594 and 655,797 and 560,973. The “Peak Height of metabolite intensity: Hippuric acid (HMDB00714)” value [1] was 47,961 and 38,230 and 36,149, the “Peak Height of metabolite intensity: Hypotaurine (HMDB00965)” value [1] was 6,754,939 and 7,052,286 and 8,446,435 and the “Peak Height of metabolite intensity: Hypoxanthine (HMDB00157)” value [1] was 211,957 and 135,595 and 141,122. The “Peak Height of metabolite intensity: Imidazolelactic acid (HMDB02320)” value [1] was 128,804 and 165,439 and 221,241, the “Peak Height of metabolite intensity: Indolelactic acid (HMDB00671)” value [1] was 84,732 and 90,304 and 155,173 and the “Peak Height of metabolite intensity: Inosine (HMDB00195)” value [1] was 2,168,084 and 318,912 and 236,433. For the same compound, the “Peak Height of metabolite intensity: Inosinic acid (HMDB00175)” value [1] was 178,233 and 246,521 and 243,587, the “Peak Height of metabolite intensity: Kynurenic acid (HMDB00715)” value [1] was 51,692 and 41,122 and 61,792 and the “Peak Height of metabolite intensity: L-Acetylcarnitine (HMDB00201)” value [1] was 106,933,600 and 121,142,500 and 148,690,900. For the same compound, the “Peak Height of metabolite intensity: L-Arginine (HMDB00517)” value [1] was 31,387,180 and 29,265,460 and 31,837,150 and the “Peak Height of metabolite intensity: L-Asparagine (HMDB00168)” value [1] was 21,992,250 and 21,453,690 and 27,389,900.
